Values joined by “and” are separate entries in the source; they are usually repeats but may differ in a detail not shown here. Equal entries are not always repeated. Toxic doses and inconclusive results are not listed. No stated cut-off is given here; in the data, active means T/C of 150% or more; inactive means T/C below 125%.
System: L1210 leukemia ip in BDF1 mice, survival T/C
Experiment: NCI In Vivo Anticancer Drug Screen. Data for tumor model L1210 Leukemia (intraperitoneal) in B6D2F1 (BDF1) mice
Conditions: endpoint: mean survival time, higher = longer survival
Outline: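 Transplanted-tumor mice were given test agent; controls received vehicle only. Survival readings from the two groups were divided (treated over control).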

[1] = dose: 100.0 mg/kg/injection, schedule: Q01DX009 (ip), vehicle: saline with Tween-80
[2] = dose: 100.0 mg/kg/injection, schedule: Q04DX003 (ip), vehicle: saline with Tween-80
[3] = dose: 200.0 mg/kg/injection, schedule: Q01DX009 (ip), vehicle: saline with Tween-80
[4] = dose: 200.0 mg/kg/injection, schedule: Q04DX003 (ip), vehicle: saline with Tween-80
[5] = dose: 400.0 mg/kg/injection, schedule: Q01DX009 (ip), vehicle: saline with Tween-80
[6] = dose: 400.0 mg/kg/injection, schedule: Q04DX003 (ip), vehicle: saline with Tween-80
[7] = dose: 100.0 mg/kg/injection, schedule: Q01DX001 (ip), vehicle: saline
[8] = dose: 200.0 mg/kg/injection, schedule: Q01DX001 (ip), vehicle: saline
[9] = dose: 400.0 mg/kg/injection, schedule: Q01DX001 (ip), vehicle: saline
[10] = dose: 100.0 mg/kg/injection, schedule: Q04DX003 (ip), vehicle: Klucel (hydroxypropylcellulose) (HPC)
[11] = dose: 200.0 mg/kg/injection, schedule: Q04DX003 (ip), vehicle: Klucel (hydroxypropylcellulose) (HPC)
[12] = dose: 400.0 mg/kg/injection, schedule: Q04DX003 (ip), vehicle: Klucel (hydroxypropylcellulose) (HPC)
[13] = dose: 100.0 mg/kg/injection, schedule: Q04DX002 (ip), vehicle: Klucel (hydroxypropylcellulose) (HPC)
[14] = dose: 200.0 mg/kg/injection, schedule: Q04DX002 (ip), vehicle: Klucel (hydroxypropylcellulose) (HPC)
[15] = dose: 400.0 mg/kg/injection, schedule: Q04DX002 (ip), vehicle: Klucel (hydroxypropylcellulose) (HPC)

Measured: T/C

c1ccc([Si]([O][Sn]([c]2ccccc2)([c]2ccccc2)[c]2ccccc2)(c2ccccc2)c2ccccc2)cc1
inactive: dose: 25.6 mg/kg/injection, schedule: Q04DX002 (ip), vehicle: saline with Tween-80 89 % of control | dose: 64.0 mg/kg/injection, schedule: Q04DX002 (ip), vehicle: saline with Tween-80 93 % of control | dose: 160.0 mg/kg/injection, schedule: Q04DX002 (ip), vehicle: saline with Tween-80 93 % of control | dose: 400.0 mg/kg/injection, schedule: Q04DX002 (ip), vehicle: saline with Tween-80 89 % of control

C=COCC(C)C (tested in a mixture with another compound)
inactive: dose: 1.56 mg/kg/injection, schedule: Q01DX001 (ip), vehicle: other 94 % of control | dose: 3.12 mg/kg/injection, schedule: Q01DX001 (ip), vehicle: other 91 % of control | dose: 3.12 mg/kg/injection, schedule: Q01DX009 (ip), vehicle: other 109 % of control | dose: 3.12 mg/kg/injection, schedule: Q04DX003 (ip), vehicle: Klucel (hydroxypropylcellulose) (HPC) 97 % of control | dose: 3.13 mg/kg/injection, schedule: Q04DX003 (ip), vehicle: saline 92 % of control | dose: 4.7 mg/kg/injection, schedule: Q01DX009 (ip), vehicle: saline 104 % of control | dose: 6.25 mg/kg/injection, schedule: Q01DX001 (ip), vehicle: other 96 % of control | dose: 6.25 mg/kg/injection, schedule: Q01DX009 (ip), vehicle: Klucel (hydroxypropylcellulose) (HPC) 107 % of control | dose: 6.25 mg/kg/injection, schedule: Q01DX009 (ip), vehicle: other 98 % of control | dose: 6.25 mg/kg/injection, schedule: Q04DX003 (ip), vehicle: Klucel (hydroxypropylcellulose) (HPC) 114 % of control | dose: 6.25 mg/kg/injection, schedule: Q04DX003 (ip), vehicle: saline 94 % of control | dose: 7.09 mg/kg/injection, schedule: Q01DX009 (ip), vehicle: Klucel (hydroxypropylcellulose) (HPC) 107 % of control | dose: 9.4 mg/kg/injection, schedule: Q01DX009 (ip), vehicle: saline 102 % of control | dose: 10.6 mg/kg/injection, schedule: Q01DX009 (ip), vehicle: Klucel (hydroxypropylcellulose) (HPC) 107 % of control | dose: 12.5 mg/kg/injection, schedule: Q01DX009 (ip), vehicle: Klucel (hydroxypropylcellulose) (HPC) 93 % of control | dose: 12.5 mg/kg/injection, schedule: Q04DX003 (ip), vehicle: Klucel (hydroxypropylcellulose) (HPC) 111 % of control | dose: 15.0 mg/kg/injection, schedule: Q01DX001 (ip), vehicle: saline 109 % of control | dose: 25.0 mg/kg/injection, schedule: Q04DX003 (ip), vehicle: Klucel (hydroxypropylcellulose) (HPC) 88 % of control | dose: 30.0 mg/kg/injection, schedule: Q01DX001 (ip), vehicle: saline 112 % of control | dose: 60.0 mg/kg/injection, schedule: Q01DX001 (ip), vehicle: saline 95 % of control | dose: 75.0 mg/kg/injection, schedule: Q01DX001 (ip), vehicle: carboxymethylcellulose (CMC) 95 % of control | dose: 75.0 mg/kg/injection, schedule: Q04DX003 (ip), vehicle: saline 108 % of control and 110 % of control | dose: 100.0 mg/kg/injection, schedule: Q01DX001 (ip), vehicle: other 106 % of control and 94 % of control | dose: 150.0 mg/kg/injection, schedule: Q01DX001 (ip), vehicle: carboxymethylcellulose (CMC) 114 % of control | dose: 150.0 mg/kg/injection, schedule: Q04DX003 (ip), vehicle: saline 98 % of control | dose: 300.0 mg/kg/injection, schedule: Q01DX001 (ip), vehicle: carboxymethylcellulose (CMC) 100 % of control | dose: 400.0 mg/kg/injection, schedule: Q01DX001 (ip), vehicle: Klucel (hydroxypropylcellulose) (HPC) 92 % of control

CC(C)CC(NC(=O)OCc1ccccc1)C(=O)O (stereo unspecified)
inactive: [1] 87 % of control | [2] 103 % of control | [3] 97 % of control | [4] 101 % of control | [5] 95 % of control | [6] 97 % of control

O=C(Cc1ccccc1)c1ccc(OCC2CO2)cc1 (stereo unspecified)
inactive: [2] 96 % of control | [4] 94 % of control | [6] 94 % of control

C[n+]1ccc(/C=C/Nc2cccc(N)n2)cc1
inactive: dose: 75.0 mg/kg/injection, schedule: Q01DX001 (ip), vehicle: saline 96 % of control | dose: 150.0 mg/kg/injection, schedule: Q01DX001 (ip), vehicle: saline 102 % of control

CCC(C)C(NC(=O)OCc1ccccc1)C(=O)ON1C(=O)CCC1=O (stereo unspecified)
inactive: [1] 94 % of control | [3] 96 % of control

O=C1C(O)=C(O)C(=O)C(O)=C1O
inactive: [7] 103 % of control | [8] 100 % of control | [9] 105 % of control

CC1(C)C2CCC1(C)C(NCc1cc(Cl)cc(Cl)c1O)C2 (stereo unspecified)
inactive: [10] 92 % of control | [11] 103 % of control | [12] 98 % of control

CC(C)CCOC(OCCC(C)C)OCCC(C)C
inactive: [7] 100 % of control | [8] 97 % of control | [9] 105 % of control

O=C1C(SCCO)=C(SCCO)C(=O)c2[nH]cnc21
inactive: dose: 5.0 mg/kg/injection, schedule: Q01DX001 (ip), vehicle: carboxymethylcellulose (CMC) 100 % of control | dose: 10.0 mg/kg/injection, schedule: Q01DX001 (ip), vehicle: carboxymethylcellulose (CMC) 101 % of control | dose: 20.0 mg/kg/injection, schedule: Q01DX001 (ip), vehicle: carboxymethylcellulose (CMC) 100 % of control | dose: 40.0 mg/kg/injection, schedule: Q01DX001 (ip), vehicle: carboxymethylcellulose (CMC) 104 % of control

CC1=CC(C)(C)Nc2ccc(Cc3ccc4c(c3)C(C)=CC(C)(C)N4)cc21
inactive: [1] 86 % of control | [3] 100 % of control | [5] 92 % of control

O=C(OCCCCCCl)c1ccccc1
inactive: [1] 100 % of control | [2] 106 % of control | [3] 104 % of control | [4] 97 % of control | [5] 98 % of control | [6] 95 % of control

CCOC(=O)/C=C\SCC(=O)OCC
inactive: dose: 100.0 mg/kg/injection, schedule: Q04DX002 (ip), vehicle: saline 104 % of control | dose: 200.0 mg/kg/injection, schedule: Q04DX002 (ip), vehicle: saline 104 % of control | dose: 400.0 mg/kg/injection, schedule: Q04DX002 (ip), vehicle: saline 93 % of control

O=[N+]([O-])c1cc(Br)c(N=Nc2ccc(O)cc2)c(Br)c1
inactive: dose: 50.0 mg/kg/injection, schedule: Q01DX001 (ip), vehicle: saline 92 % of control | [7] 114 % of control | [8] 97 % of control | [9] 92 % of control

COc1ccc(NC(=O)Nc2ccccc2)cc1
inactive: dose: 50.0 mg/kg/injection, schedule: Q04DX002 (ip), vehicle: Klucel (hydroxypropylcellulose) (HPC) 105 % of control | [13] 98 % of control and 102 % of control | [14] 99 % of control | [15] 91 % of control

CCOC(=O)N(CCCl)C(=O)C(C)C
inactive: [1] 92 % of control | [3] 96 % of control | [5] 94 % of control

CS(=O)(=O)OCCN(CCOS(C)(=O)=O)c1ccc(C=Nc2cc(Cl)c(O)c(Cl)c2)cc1
inactive: dose: 20.0 mg/kg/injection, schedule: Q04DX003 (ip), vehicle: Klucel (hydroxypropylcellulose) (HPC) 107 % of control | dose: 40.0 mg/kg/injection, schedule: Q04DX003 (ip), vehicle: Klucel (hydroxypropylcellulose) (HPC) 120 % of control | dose: 80.0 mg/kg/injection, schedule: Q04DX003 (ip), vehicle: Klucel (hydroxypropylcellulose) (HPC) 86 % of control | [10] 110 % of control

C/C=C(/C)C(=O)OCCCCCCCCC
inactive: [13] 102 % of control | [14] 102 % of control | [15] 94 % of control

Cc1no[n+]([O-])c1[N+](=O)[O-]
inactive: dose: 5.0 mg/kg/injection, schedule: Q01DX009 (ip), vehicle: saline 100 % of control | dose: 10.0 mg/kg/injection, schedule: Q01DX009 (ip), vehicle: saline 101 % of control | dose: 20.0 mg/kg/injection, schedule: Q01DX009 (ip), vehicle: saline 102 % of control

CC12CCC3c4ccccc4CCC3(CO1)C2 (stereo unspecified)
inactive: dose: 100.0 mg/kg/injection, schedule: Q01DX009 (ip), vehicle: Klucel (hydroxypropylcellulose) (HPC) 105 % of control | [10] 95 % of control | dose: 200.0 mg/kg/injection, schedule: Q01DX009 (ip), vehicle: Klucel (hydroxypropylcellulose) (HPC) 105 % of control | [11] 106 % of control | dose: 400.0 mg/kg/injection, schedule: Q01DX009 (ip), vehicle: Klucel (hydroxypropylcellulose) (HPC) 104 % of control | [12] 95 % of control
